Like-named read-outs stand apart in the source and are kept apart here.

Here are results for one molecule from article PMC3605511, “Tumor P-Glycoprotein Correlates with Efficacy of PF-3758309 in in vitro and in vivo Models of Colorectal Cancer” (Frontiers in Pharmacology, 2013).

In data set [1] the test system is CRC, breast, and non-small cell lung cancer cell lines. The experiment in a line: Proliferation by resazurin, expanded panel of 71 cell lines. It is filed as cell-based. To be noted: Homo sapiens, printed over a group of bars, cell lines covered not named. As for the experimental part:
(§1) Cytotoxic/proliferation effects were determined using the sulforhodamine B (SRB) assay (Skehan et al., [1990]) or by resazurin. Briefly, cells in logarithmic growth phase were transferred to 96 well flat bottom plates with lids. One-hundred microliter cell suspensions containing 1500–5000 viable cells were plated into each well and incubated overnight prior to exposure with increasing concentrations of PF-309 for 3–5 days, dependent upon cell type. Media was removed and cells were fixed with cold 10% trichloroacetic acid for 30 min at 4°C. Cells were then washed with water and stained with 0.4% SRB (Fisher Sci., Pittsburgh, PA, USA) for 30 min at room temperature, washed again with 1% acetic acid, followed by stain solubilization with 10 mM tris at room temperature. The plate was then read on a plate reader (Biotek Synergy 2, Winooski, VT, USA) set at an absorbance wavelength of 565 nm. Cell proliferation curves were derived from the raw absorbance (OD) data.
(§2) Since PF-309 appeared to be a strong P-gp and BCRP substrates, we sought to evaluate if the transporters influenced sensitivity in vitro. We evaluated the sensitivity of CRC cell lines to PF-309 treatment in a panel of 27 lines. Cells were exposed to PF-309 at a range of concentrations for 72 h and cell content measured by SRB assay (see Pitts et al., [2013]). […]
In general terms: Alamar Blue is a resazurin reagent that responds to reducing activity.

For a further data set, the system named is MDCKII-LE cells. The experiment in a line: MDCKII-LE permeability assay. The data set is classed as in vitro ADME. To be noted: MDCKII-LE; A → B <5 × 10^−6 cm/s low, 5–15 moderate, >15 high. As for the experimental part:
(§3) Permeability and transporter substrate assays were performed as previously published (Feng et al., [2008]; Callegari et al., [2011]; Di et al., [2011]). Permeability assays were conducted in MDCKII-LE cells, which were generated by isolation of a subpopulation of cells with low expression of endogenous P-gp (Feng et al., [2008]; Callegari et al., [2011]; Di et al., [2011]). The use of MDCKII-LE cells are used to measure the passive permeability of compounds in place of MDCK wild-type or Caco-2 cells since both MDCK wild-type and Caco-2 cells are known to have some level of endogenous transporter expression which can affect the permeability measurement. P-gp efflux was determined in MDR1-MDCK cells and BCRP efflux was measured in BCRP-MDCKII-LE cells.
(§4) MDCKII-LE, MDR1-MDCK, and BCRP-MDCKII-LE transwell assays were performed to determine the permeability and transporter efflux of PF-309 in vitro (Table 1). The permeability of PF-309 was determined to be 0.9 × 10^−6 cm/s in MDCKII-LE cells (mean of two replicates is presented). As previously described (Feng et al., [2008]), in MDCKII-LE cells a compound with a donor to receiver (A → B) flux of <5 × 10^−6 cm/s is classified as having low permeability. Compounds with A → B flux of 5–15 × 10^−6 cm/s are classified as moderately permeable and compounds >15 × 10^−6cm/s are considered to be highly permeable.

Data set [2] is described as follows: MDCKII-LE permeability assay. It is filed as in vitro ADME. To be noted: dog, MDCK; MDCKII-LE cells, mean of two replicates. The method, then: as §3, §4
Another data set deals with HCT15. The experiment in a line: Cell proliferation assay, HCT15. The settings on record: Homo sapiens, HCT-15. The data set is classed as cell-based. As for the experimental part:
as §1, §2

Data set [3] relates to HCT15 cell line xenograft. The experiment in a line: CRC cell line xenograft efficacy, HCT15. The data set is classed as in vivo, mice. To be noted: 25 mg/kg orally twice daily, 14–28 days, end of study tumor volumes. The method, then: For cell line xenografts, CRC cells were harvested in exponential phase growth and resuspended in a 1:1 mixture of serum-free RPMI 1640 and Matrigel (BD Biosciences). Five to ten million cells per mouse were injected subcutaneously into the flank using a 23-gauge needle. Mice were monitored daily for signs of toxicity and were weighed twice weekly. Tumor size was evaluated twice per week by caliper measurements using the following formula: tumor volume = length × width^2 × 0.52. When tumors reached 200–300 mm^3 mice were randomized into two groups with at least 10 tumors per group. Mice were then treated for 14–28 days (until control tumor volume reach ∼1500 mm^3) with either vehicle control (0.5% methylcellulose), or PF-3758309 (25 mg/kg) twice daily by oral gavage.
Human tumor xenograft models were used to evaluate the efficacy of PF-309 in vivo. Eleven different CRC cell line tumor xenografts were treated with 25 mg/kg PF-309 twice daily by oral gavage for 14–28 days (until control tumor volumes reached ∼1500 mm^3). Tumor volumes were measured throughout the study and the % growth inhibition was calculated from the average end of study tumor volumes by:
% Growth Inhibition= (average control volume−average treated volume)/average control volume×100%

The next data set deals with NCIH508. Kind of data set: Cell proliferation assay, NCIH508. The data set is classed as cell-based. The settings on record: Homo sapiens, NCI-H508; NCIH508, 72 h, SRB assay. As for the experimental part:
as §1, §2
(In general: Sulforhodamine B stains cellular protein and so reports cell mass.)

One may read the IC50 as the concentration that gives 50% inhibition. In general, Papp A→B refers to how fast a substance crosses the layer from the apical side. Low values mean slow passage, high ones fast passage. As for `Cc1nc(Nc2n[nH]c3c2CN(C(=O)N[C@H](CN(C)C)c2ccccc2)C3(C)C)c2sccc2n1` [PF-309], the half-inhibitory concentration (IC50) in data set [1] was over 100 nM; with HCT15 (HCT15, 72 h, SRB assay, read-out: IC50) it was over 1000 nM; in the data set with HCT15 (HCT15, PF-309 alone, 72 h (Table 2), read-out: PF-309 IC50) it was 780 nM; with NCIH508, over 1000 nM. Moreover, the permeability classification entry in the data set on MDCKII-LE cells is listed as “poorly permeable”. The Papp A→B in data set [2] is 0.9 ×10⁻⁶ cm/s. In addition, in data set [3], the “% Growth inhibition” value was 18%.
